Source: patent US6592867B2, “Antimicrobial composition containing an oxidoreductase and an enhancer of the N-hydroxyanilide-type” (Novozymes A/S, priority 1998, dated 2003)

How the values were obtained:
Format in all cases: cell-based
Pseudomonas fluorescens = assay: Bactericidal activity of phenol oxidizing enzyme plus enhancing agent, surviving cells enumerated by Malthus (Examples 1 and 3); settings: for Bactericidal activity (reduction in living cell number) / Bactericidal activity: 20 min, 40° C.; for Cell reduction: enhancing agent 0.2 mM, hydrogen peroxide 0.5 mM, rCiP 3 POXU/ml, total kill
Experimental: (§1) Antimicrobial activity was evaluated in 0.05 M MES-buffer (Sigma M8250) (pH 6) or 0.05 HEPES-buffer (Sigma H3375) (pH 8); buffers were sterilised by filter sterilisation. The antimicrobial activity was determined against Pseudomonas fluorescens (Gram et al. 1990, International Journal of Food Microbiology 10: 303-316) and Staphylococcus epidermidis (DSM 20042). Cells were grown in Tryptone Soya Broth (Oxoid CM129) at 30° C. (S. epidermidis) or 25° C. (P. fluorescens) for 24 h and diluted in the MES-buffer to a final cell concentration of approximately 10^6 cfu/ml. The cell suspensions were mixed with rCiP (3 POXU/ml), enhancing agent (0.2 mM) and hydrogen peroxide (0.5 mM) for 20 min at 40° C. The bactericidal activity was determined by incubation in Malthus. Detection times measured by the Malthus instrument were converted to cfu/ml by a calibration curve. Either direct or Indirect Malthus measurements were used when enumerating total survival cells (Malthus Flexi M2060, Malthus Instrument Limited). By the direct measurements, the cell metabolism was determined by conductance measurements in the growth substrate. By the indirect measurements, 3 ml of growth medium was transferred to the outer chamber of the indirect Malthus cells, and 0.5 ml of sterile KOH (0.1 M) was transferred to the inner chamber. The cell suspensions were after enzyme treatment transferred to the outer chamber of the Malthus cell. As cells are growing in the outer chamber they produce CO2 which will dissolve in the KOH in the inner chamber and thereby change the conductance of the KOH. The amount of CO2 formed by the respiring cells surviving the enzyme treatment was used for estimating the number of viable cells. When the conductance change is measurable by the Malthus, a detection time (dt) will be recorded. The dt's were converted to colony counts by use of a calibration curve relating cfu/ml to dt (Johansen et al. 1995. Journal of Applied Bacteriology 78:297-303, Johansen et al. 1997, Applied and Environmental Microbiology 63:3724-3728). Antibacterial activity of Coprinus cinereus peroxidase (rCiP), Polyporus pinsitus laccase (rPpL), Coprinus cinereus laccase (rCcL) and Rhizoctonia solani laccase (rRsL) (as described in WO 95/07988) was determined with different enhancing agents at pH 6 and 8 (buffers; see Example 1). The rCiP was combined with 0.5 mM hydrogen peroxide. Antimicrobial activity of rCiP and rPpL was determined against Pseudomonas fluorescens (Gram et al. 1990, International Journal of Food Microbiology 10:303-316), whereas antimicrobial activity of rCcL and rRsL was determined against Pseudomonas aeruginosa (ATCC 10145). The bactericidal activity was determined as described in example 1. The results are shown as the reduction in living cell number. Thus, a reduction of 4 correspond to a 4 log reduction of living cells e.g. from 10^6 CFU/ml to 10^2 CFU/ml.

[1] = system: Pseudomonas aeruginosa (ATCC 10145); assay: Bactericidal activity of laccase plus enhancing agent, surviving cells enumerated by Malthus (Examples 2 and 3)
Experimental: as §1, with “The antimicrobial” for “Antimicrobial activity was evaluated in 0.05 M MES-buffer (Sigma M8250) (pH 6) or 0.05 HEPES-buffer (Sigma H3375) (pH 8); buffers were sterilised by filter sterilisation. The antimicrobial”, “activity of Polyporus pinsitus laccase (rPpL), obtained as described in WO 96/00290), and Coprinus cinereus laccase (rCcL), obtained as described in WO 97/08325, was determined with N-hydroxyacetanilide as enhancing agent against Pseudomonas aeruginosa (ATCC 10145), Enterobacter aerogenes (ATCC 13048) and Enterococcus faecalis (DSM 2570). The bactericidal activity was determined as described in Example 1, the antimicrobial activity of rPpL (1 mg/L) was evaluated at pH 6, whereas rCcL (1 mg/L) was evaluated at pH 8. Antibacterial activity of Coprinus cinereus” for “activity of Coprinus cinereus”

[2] = system: Enterococcus faecalis (DSM 2570); assay: Bactericidal activity of laccase plus N-hydroxyacetanilide, Malthus (Example 2); settings: 20 min, 40° C.
Experimental: (§2) The antimicrobial activity was determined against Pseudomonas fluorescens (Gram et al. 1990, International Journal of Food Microbiology 10: 303-316) and Staphylococcus epidermidis (DSM 20042). Cells were grown in Tryptone Soya Broth (Oxoid CM129) at 30° C. (S. epidermidis) or 25° C. (P. fluorescens) for 24 h and diluted in the MES-buffer to a final cell concentration of approximately 10^6 cfu/ml. The cell suspensions were mixed with rCiP (3 POXU/ml), enhancing agent (0.2 mM) and hydrogen peroxide (0.5 mM) for 20 min at 40° C. The bactericidal activity was determined by incubation in Malthus. Detection times measured by the Malthus instrument were converted to cfu/ml by a calibration curve. Either direct or Indirect Malthus measurements were used when enumerating total survival cells (Malthus Flexi M2060, Malthus Instrument Limited). By the direct measurements, the cell metabolism was determined by conductance measurements in the growth substrate. By the indirect measurements, 3 ml of growth medium was transferred to the outer chamber of the indirect Malthus cells, and 0.5 ml of sterile KOH (0.1 M) was transferred to the inner chamber. The cell suspensions were after enzyme treatment transferred to the outer chamber of the Malthus cell. As cells are growing in the outer chamber they produce CO2 which will dissolve in the KOH in the inner chamber and thereby change the conductance of the KOH. The amount of CO2 formed by the respiring cells surviving the enzyme treatment was used for estimating the number of viable cells. When the conductance change is measurable by the Malthus, a detection time (dt) will be recorded. The dt's were converted to colony counts by use of a calibration curve relating cfu/ml to dt (Johansen et al. 1995. Journal of Applied Bacteriology 78:297-303, Johansen et al. 1997, Applied and Environmental Microbiology 63:3724-3728). Antibacterial activity of Polyporus pinsitus laccase (rPpL), obtained as described in WO 96/00290), and Coprinus cinereus laccase (rCcL), obtained as described in WO 97/08325, was determined with N-hydroxyacetanilide as enhancing agent against Pseudomonas aeruginosa (ATCC 10145), Enterobacter aerogenes (ATCC 13048) and Enterococcus faecalis (DSM 2570). The bactericidal activity was determined as described in Example 1, the antimicrobial activity of rPpL (1 mg/L) was evaluated at pH 6, whereas rCcL (1 mg/L) was evaluated at pH 8.

[3] = system: Enterobacter aerogenes (ATCC 13048); assay: as above; settings: for Bactericidal activity (dose-response): 20 min, 40° C.
Experimental: as §2

[4] = rCiP = 3 POXU/ml + 0.5 mM hydrogen peroxide, pH 6
[5] = rCiP = 3 POXU/ml + 0.5 mM hydrogen peroxide, pH 8
[6] = rCcL = 5 mg/L, pH 6, 20 min, 40° C.
[7] = rCcL = 5 mg/L, pH 8, 20 min, 40° C.
[8] = rRsL = 5 mg/L, pH 6, 20 min, 40° C.
[9] = rRsL = 5 mg/L, pH 8, 20 min, 40° C.
[10] = rPpL 1 mg/L, pH 6, high concentration of N-hydroxyacetanilide

## CC(=O)c1ccc(N(O)C(C)=O)cc1 [N1-(4-acetylphenyl)-N1-hydroxyacetamide]
Pseudomonas fluorescens; [4]
  Bactericidal activity (reduction in living cell number): 1.2 log CFU/ml

## CC(=O)N(O)c1ccc(C#N)cc1 [N1-(4-cyanophenyl)-N1-hydroxyacetamide]
Pseudomonas fluorescens; rPpL = 5 mg/L, pH 6
  Bactericidal activity (reduction in living cell number): 1.7 log CFU/ml

## CC(=O)N(O)c1ccc(O)cc1 [N1-(4-hydroxyphenyl)-N1-hydroxyacetamide]
Pseudomonas fluorescens; [4]
  Bactericidal activity (reduction in living cell number): 3.7 log CFU/ml
Pseudomonas fluorescens; [5]
  Bactericidal activity (reduction in living cell number): 1.1 log CFU/ml

## CC(=O)N(O)c1cccc([N+](=O)[O-])c1 [N1-hydroxy-N1-(3-nitrophenyl)acetamide]
Pseudomonas fluorescens; [4]
  Bactericidal activity (reduction in living cell number): 1.5 log CFU/ml
Pseudomonas fluorescens; [5]
  Bactericidal activity (reduction in living cell number): 1.1 log CFU/ml
Pseudomonas fluorescens; rPpL = 5 mg/L, pH 6
  Bactericidal activity (reduction in living cell number): 1.6 log CFU/ml

## CC(=O)N(O)c1ccc([N+](=O)[O-])cc1 [N1-hydroxy-N1-(4-nitrophenyl)acetamide]
Pseudomonas fluorescens; [4]
  Bactericidal activity (reduction in living cell number): 4.2 log CFU/ml
Pseudomonas fluorescens; [5]
  Bactericidal activity (reduction in living cell number): 1.2 log CFU/ml
Pseudomonas fluorescens; rPpL = 5 mg/L, pH 6
  Bactericidal activity (reduction in living cell number): 6.7 log CFU/ml
Pseudomonas fluorescens; rPpL = 5 mg/L, pH 8
  Bactericidal activity (reduction in living cell number): 1.7 log CFU/ml

## N#Cc1ccc(C(=O)N(O)c2ccccc2)cc1 [N1-hydroxy-N1-phenyl-4-cyanobenzamide]
[1]; [6]
  Bactericidal activity (reduction in living cell number): 3.5 log CFU/ml
[1]; [7]
  Bactericidal activity (reduction in living cell number): 6.5 log CFU/ml
[1]; [8]
  Bactericidal activity (reduction in living cell number): 3.5 log CFU/ml
[1]; [9]
  Bactericidal activity (reduction in living cell number): 6.5 log CFU/ml
Pseudomonas fluorescens; [4]
  Bactericidal activity (reduction in living cell number): 6.1 log CFU/ml
Pseudomonas fluorescens; [5]
  Bactericidal activity (reduction in living cell number): 2.1 log CFU/ml
Pseudomonas fluorescens; rPpL = 5 mg/L, pH 6
  Bactericidal activity (reduction in living cell number): 2.5 log CFU/ml

## COc1ccc(C(=O)N(O)c2ccccc2)cc1 [N1-hydroxy-N1-phenyl-4-methoxybenzamide]
[1]; [6]
  Bactericidal activity (reduction in living cell number): 5.9 log CFU/ml
[1]; [7]
  Bactericidal activity (reduction in living cell number): 6.3 log CFU/ml
[1]; [8]
  Bactericidal activity (reduction in living cell number): 3.8 log CFU/ml
[1]; [9]
  Bactericidal activity (reduction in living cell number): 4.6 log CFU/ml
Pseudomonas fluorescens; [4]
  Bactericidal activity (reduction in living cell number): 4.1 log CFU/ml
Pseudomonas fluorescens; rPpL = 5 mg/L, pH 8
  Bactericidal activity (reduction in living cell number): 4.8 log CFU/ml

## O=C(c1ccc([N+](=O)[O-])cc1)N(O)c1ccccc1 [N1-hydroxy-N1-phenyl-4-nitrobenzamide]
Pseudomonas fluorescens; [5]
  Bactericidal activity (reduction in living cell number): 1.4 log CFU/ml

## CC(=O)N(O)c1ccccc1 [N-hydroxyacetanilide]
[1]; combined with laccase (rPpL or rCcL, 1 mg/L), 20 min, 40° C.
  Enhancing agent concentration at which bactericidal activity was obtained: above 200 μM
[1]; rCcL 1 mg/L, pH 8, 20 min, 40° C.
  Bactericidal activity (dose-response): significant bactericidal activity
[1]; rPpL 1 mg/L, pH 6, 20 min, 40° C.
  Bactericidal activity (dose-response): significant bactericidal activity
[1]; [10]
  Bactericidal activity at high concentration of enhancing agent: total kill
[2]; rCcL 1 mg/L, pH 8
  Bactericidal activity (dose-response): significant bactericidal activity
[2]; rPpL 1 mg/L, pH 6
  Bactericidal activity (dose-response): significant bactericidal activity
[3]; rCcL 1 mg/L, pH 8
  Bactericidal activity (dose-response): significant bactericidal activity
[3]; rPpL 1 mg/L, pH 6
  Bactericidal activity (dose-response): significant bactericidal activity
[3]; [10]
  Bactericidal activity at high concentration of enhancing agent: total kill
Pseudomonas fluorescens; combined system: enhancing agent 0.2 mM, hydrogen peroxide 0.5 mM and rCiP 3 POXU/ml
  Bactericidal activity: total kill
Pseudomonas fluorescens; pH 6
  Cell reduction: approximately 10^6 CFU/ml
Pseudomonas fluorescens; pH 8
  Cell reduction: approximately 10^6 CFU/ml
Pseudomonas fluorescens; enhancing agent (0.2 mM) combined with hydrogen peroxide (0.5 mM), no enzyme
  Bactericidal activity: No bactericidal activity
Pseudomonas fluorescens; enhancing agent alone (0.2 mM), no enzyme, no hydrogen peroxide
  Bactericidal activity: No bactericidal activity
